Molecules are shown by their SMILES. Bridge positions count the residues as written; N and C are the ends. Square brackets hold non-standard residues; d marks the D form. Peptide text beside a SMILES is read from it. 2Nal = N[C@@H](Cc1ccc2ccccc2c1)C(=O)O; Cit = NC(=O)NCCC[C@H](N)C(=O)O Where only a bound is given, the exact number is not on record here.

One data set deals with CXCR4 (Homo sapiens, UniProt P61073). The experiment in a line: Competition assays: test compounds binding to CXCR4 compared to SDF-1 (Table 2).
Chain of CXCR4 (P61073 whole entry): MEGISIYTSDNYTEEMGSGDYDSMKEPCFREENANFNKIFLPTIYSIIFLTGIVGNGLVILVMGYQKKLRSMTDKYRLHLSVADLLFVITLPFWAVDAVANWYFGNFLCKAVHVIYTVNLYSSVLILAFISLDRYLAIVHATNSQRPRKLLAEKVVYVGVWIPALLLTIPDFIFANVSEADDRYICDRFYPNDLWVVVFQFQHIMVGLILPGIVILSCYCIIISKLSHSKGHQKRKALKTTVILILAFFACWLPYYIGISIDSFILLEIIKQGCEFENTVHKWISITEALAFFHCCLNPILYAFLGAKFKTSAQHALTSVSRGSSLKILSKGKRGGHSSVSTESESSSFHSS
Settings: not given
Usually IC50 stands for the concentration that inhibits the measured activity by half. In the case of `O=[N+]([O-])c1ccc(NCc2ccc(CNc3ccc([N+](=O)[O-])cc3)cc2)cc1` [MSX-178], the IC50 is > 1000 nM.

As for `O=[N+]([O-])c1cccc(NCc2ccc(CNc3cccc([N+](=O)[O-])c3)cc2)c1` [MSX-203], the IC50 turned out to be 1 nM.

The same data set, now with this note: competition with SDF-1 for binding to CXCR4; read-out: IC50 (nM) vs SDF-1.
Turning to `COc1ccc(NCc2ccc(CNc3ccc(OC)cc3)cc2)cc1` [MSX-125], the IC50 was > 10 nM.

As to `Cc1cc(CN)c(C)cc1CN` [MSX-126], the 50% inhibitory concentration (IC50) is > 1000 nM.

Consider `Oc1cc(CN2CCOCC2)c(O)cc1CN1CCOCC1` [MSX-127], for which the 50% inhibitory concentration (IC50) was > 1000 nM.

Take `c1ccc(-c2nc(-c3ccc(-c4nc(-c5ccccc5)c(-c5ccccc5)[nH]4)cc3)[nH]c2-c2ccccc2)cc1` [MSX-130]: the IC50 is > 1000 nM.

For the molecule `c1cc(CNC2=NCCN2)ccc1CNC1=NCCN1` [MSX-133], the IC50 is > 1000 nM.

Take `COc1cccc(NC(=O)c2ccc(C(=O)Nc3cccc(OC)c3)cc2)c1` [MSX-137]: the IC50 is > 1000 nM.

Take `FC(F)(F)c1cccc(NCc2ccc(CNc3cccc(C(F)(F)F)c3)cc2)c1` [MSX-138]: the IC50 was > 1000 nM.

With `CN(C)Cc1ccc(CN(C)C)cc1` [MSX-141], the IC50 was > 1000 nM.

Regarding `Fc1ccc(NCc2ccc(CNc3ccc(F)cc3)cc2)cc1` [MSX-142], the IC50 is > 1000 nM.

Take `CN(C)CCNCc1ccc(CNCCN(C)C)cc1` [MSX-156s]: the IC50 was > 1000 nM.

For the molecule `c1ccc(NCCNCc2ccc(CNCCNc3ccccc3)cc2)cc1` [MSX-158], the IC50 was > 1000 nM.

`c1cc(CNCc2ccc(CNCc3ccncc3)cc2)ccn1` [MSX-159s]: the IC50 is > 1000 nM.

`c1cncc(CNCc2ccc(CNCc3cccnc3)cc2)c1` [MSX-160]: the 50% inhibitory concentration (IC50) is > 1000 nM.

On to `c1ccc(CNCc2ccc(CNCc3ccccn3)cc2)nc1` [MSX-161s], for which the IC50 is > 1000 nM.

With `CN(Cc1ccc(CN(C)c2ccccc2)cc1)c1ccccc1` [MSX-164], the IC50 is > 100 nM.

Take `c1ccc(NCc2cc(CNc3ccccc3)cc(CNc3ccccc3)c2)cc1` [MSX-166]: the IC50 was > 1000 nM.

Consider `O=C(Nc1ccccc1)c1cc(CNc2ccccc2)cc(CNc2ccccc2)c1` [MSX-167], for which the IC50 was > 100 nM.

For the molecule `c1ccc(NCCc2ccc(CCNc3ccccc3)cc2)cc1` [MSX-170], the IC50 is > 100 nM.

On to `c1ccc(NC[C@H]2CC[C@@H](CNc3ccccc3)CC2)cc1` [MSX-171], for which the IC50 is > 1000 nM.

For `c1ccc(NCc2c3ccccc3c(CNc3ccccc3)c3ccccc23)cc1` [MSX-174], the IC50 was > 100 nM.

On to `c1ccc(NCc2ccccc2CNc2ccccc2)cc1` [MSX-176], for which the IC50 is > 100 nM.

In the case of `N#Cc1ccc(NCc2ccc(CNc3ccc(C#N)cc3)cc2)cc1` [MSX-177], the IC50 is > 1000 nM.

In the case of `Oc1ccc(NCc2ccc(CNc3ccc(O)cc3)cc2)cc1` [MSX-179], the IC50 is > 1000 nM.

Regarding `Fc1cccc(NCc2ccc(CNc3cccc(F)c3)cc2)c1` [MSX-184], the IC50 was > 100 nM.

`Fc1ccc(NCc2ccc(CNc3ccc(F)cn3)cc2)nc1` [MSX-185]: the IC50 was < 100 nM.

Take `OCc1ccc(CNc2ccc(F)cn2)cc1` [MSX-186]: the IC50 is > 1000 nM.

Take `[O-][n+]1cccnc1NCc1ccc(CNc2nccc[n+]2[O-])cc1` [MSX-189]: the IC50 is > 1000 nM.

With `Fc1cnc(NCc2ccc(CNc3ncc(F)c(Cl)n3)cc2)nc1Cl` [MSX-192], the IC50 worked out at 1 nM.

Take `Fc1nccc(NCc2ccc(CNc3ccnc(F)n3)cc2)n1` [MSX-193]: the IC50 was 1 nM.

Take `Fc1ccc(NCc2ccc(CNc3ncccn3)cc2)nc1` [MSX-197]: the IC50 worked out at 1 nM.

Consider `c1ccc(NCc2ccc(CNc3ncccn3)cc2)nc1` [MSX-198], for which the IC50 was < 100 nM.

In the case of `COc1nc(NCc2ccc(CNc3ncc(F)c(OC)n3)cc2)ncc1F` [MSX-201], the IC50 was found to be 1 nM.

With `O=[N+]([O-])c1ccccc1NCc1ccc(CO)cc1` [MSX-202], the IC50 came to 1 nM.

Consider `FCc1ccc(CNc2ncccn2)cc1` [MSX-207], for which the IC50 was 1 nM.

Consider `c1ccc(OCc2ccc(COc3ccccn3)cc2)nc1` [MSX-213], for which the IC50 was > 1000 nM.

Regarding `Clc1cccc(NCc2ccc(CNc3ncccn3)cc2)n1` [MSX-221], the IC50 was determined as 1 nM.

For `N=C(N)NCCC[C@H](NC(=O)[C@@H]1CSSC[C@H](NC(=O)[C@H](Cc2ccc3ccccc3c2)NC(=O)[C@H](CCCNC(=N)N)NC(=O)[C@@H](N)CCCNC(=N)N)C(=O)N[C@@H](Cc2ccc(O)cc2)C(=O)N[C@@H](CCCNC(N)=O)C(=O)N[C@@H](CCCCN)C(=O)N[C@H](CCCCN)C(=O)N2CCC[C@H]2C(=O)N[C@@H](Cc2ccc(O)cc2)C(=O)N[C@@H](CCCNC(=N)N)C(=O)N[C@@H](CCCNC(N)=O)C(=O)N1)C(N)=O` [TN-14003, reference compound] (H-RR[2Nal]CY[Cit]K[dK]PYR[Cit]CR-NH2; disulfide 4-13 (inferred); N-terminus assumed), the IC50 is < 1 nM.

Test system in the next data set: not listed separately
Briefly: Half life of the compounds in mice. Type of data set: in vivo.
Settings: not given
How it is done: A pharmacokinetic study of a novel anti-HIF-1α small molecule was performed. A stably integrated hypoxia-reporter system of glioma cells transfected with the hypoxia-reporting plasmid (described above) was utilized. A natural product-like small molecule library of 10,000 compounds was screened and the “best hit” was identified. HPLC methodology was developed for quantitatively detecting KCN-1 in plasma and other biological samples. For the pharmacokinetic study, KCN-1 (100 mg/kg) was dissolved in DMSO and administered intravenously to mice. Plasma samples were collected at given time Points (0.25, 0.5, 1, 2, 4 and 8 h) and KCN-1 levels were quantified by HPLC. The HPLC system consisted of a Varian Prostar gradient pump, a Prostar autosampler and a Prostar photo diode array detector. The column was a Luna 5μ C18 column (4.6 mm×250 mm, Phenomenex). The retention time of KCN1 and the internal standard were 8.7 and 17.7 min, respectively (FIG. 13). The in vivo stability of WZZL811S and WZ40 were measured after systemic administration of compounds over two hours (FIG. 17).
The half life of the compounds in mice where determined are also shown.
`O=[N+]([O-])c1cccc(NCc2ccc(CNc3cccc([N+](=O)[O-])c3)cc2)c1` [MSX-203]: the “t½ (min) in mice” value is on record as “infinite”.

Still in this data set, the particulars now being: mouse, in vivo, read-out: t½ (min) in mice.
For `Cc1c(C)c(CNc2ccccc2)c(C)c(C)c1CNc1ccccc1` [MSX-172], the half-life was < 5 min.

As for `Clc1nc(Cl)nc(NCc2ccc(CNc3nc(Cl)nc(Cl)n3)cc2)n1` [MSX-190], the half-life is < 5 min.

`Fc1nccc(NCc2ccc(CNc3ccnc(F)n3)cc2)n1` [MSX-193]: the half-life came out at 30 min.

On to `Fc1ccc(NCc2ccc(CNc3ncccn3)cc2)nc1` [MSX-197], for which the half-life was 16.5 min.

Consider `O=[N+]([O-])c1ccccc1NCc1ccc(CO)cc1` [MSX-202], for which the half-life is < 5 min.

On to `FCc1ccc(CNc2ncccn2)cc1` [MSX-207], for which the half-life was 11 min.

In the case of `Fc1cccc(NCc2ccc(CNc3ncccn3)cc2)n1` [MSX-222], the half-life turned out to be 15 min.

For a further data set, the system named is SHIV. The experiment in a line: SHIV infection, p27 antigen capture. Type of data set: cell-based. Conditions: 0.1, 1, 10 or 100 nM drug prior to infection; 2 to 5 days. The method, then:
The effect of the test compounds on HIV infection in model cells was analyzed by p27 antigen capture using SHIV infected cells. Cells were incubated with 0, 0.1, 1, 10 or 100 nM drug prior to infection with SHIV. Viral titer was measured after infection by analyzing levels of p27 antigen. […] The inhibition was measurable at 2 days, and continued to 5 day incubations.
On to `c1cnc(NCc2ccc(CNc3ncccn3)cc2)nc1` [WZ40], for which the “inhibition of SHIV infection (p27 antigen)” value is “inhibited SHIV infection at all concentrations tested”.

For `OCc1ccc(CNc2ncccn2)cc1` [WZ41], the “inhibition of SHIV infection (p27 antigen)” value is on record as “inhibited SHIV infection at all concentrations tested”.

Test system in the next data set: not given
Test: not given
Settings: not given
What is called melting point is the temperature, or range, at which the solid turns liquid. As to `N=C(N)NCc1ccc(CNC(=N)N)cc1` [WZ5S], the melting point is 278 to 281 °C (dec.).

On to `c1ccc(NCCNCc2ccc(CNCCNc3ccccc3)cc2)cc1` [WZ8], for which the melting point fell in the range of 42 to 43 °C.

Take `c1ccc(NCc2ccc(CNc3ccccc3)cc2)cc1` [WZ13]: the melting point lay within 126 to 127 °C.

Take `O=C(Nc1ccccc1)c1cc(C(=O)Nc2ccccc2)cc(C(=O)Nc2ccccc2)c1` [WZ20]: the melting point lay within 318 to 320 °C.

These data come from patent publication US20160002174A1, “CXCR4 Antagonists for the Treatment of Medical Disorders” (Emory University, priority 2005, published 2016).
